Our source for the TGI values is PubChem BioAssay (NCI).

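Where inhibition never reached the appropriate level, the endpoint shown equals the highest concentration tested. Otherwise, values were interpolated linearly from a five-concentration, 48-hour dose response in 96-well plates. The concentration for full growth arrest is given as TGI.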

Among the test systems are SN12C renal; SNB-75 CNS; HCT-116 colon; HOP-62 NSCLC; HT29 colon; OVCAR-8 ovarian; BT-549 breast; NCI-H23 lung; UACC-62 melanoma; SF-295 CNS; MDA-MB-435; OVCAR-5 ovarian; SK-MEL-28 melanoma; SF-268 CNS; SK-MEL-2 melanoma; RXF 393 renal; RPMI-8226 leukemia; SR leukemia; HOP-92 NSCLC.
Common to all, as to experiment: growth of human tumour cells (NCI), 48 h

Take `COC(=O)CN1C(=O)C2(C(=O)OC)OC1(c1ccc([N+](=O)[O-])cc1)C1C(=O)N(c3ccccc3)C(=O)C12` (stereo unspecified): the TGI with SN12C renal, with SNB-75 CNS, with HCT-116 colon, in the experiment on HOP-62 NSCLC, in the experiment with HT29 colon and in the experiment on OVCAR-8 ovarian was more than 100 µM in each case. Besides, the TGI in the experiment on BT-549 breast, in the experiment on NCI-H23 lung, in the experiment on UACC-62 melanoma, in the experiment with SF-295 CNS, in the experiment on MDA-MB-435 and with OVCAR-5 ovarian was more than 100 µM throughout. Besides, the TGI in the experiment with SK-MEL-28 melanoma, in the experiment on SF-268 CNS, with SK-MEL-2 melanoma and with RXF 393 renal was more than 100 µM each time.

`COc1ccccc1/C=C1\S/C(=N/Nc2nc(C)c(C(C)=O)s2)NC1=O`: the TGI with SN12C renal was more than 100 µM; in the experiment on SNB-75 CNS it was 61 µM; with HCT-116 colon it was more than 100 µM; in the experiment with HOP-62 NSCLC it was more than 100 µM; with RPMI-8226 leukemia, 89.4 µM; with HT29 colon, more than 100 µM. Further, the TGI in the experiment with OVCAR-8 ovarian is more than 100 µM; in the experiment on SR leukemia it was more than 100 µM; in the experiment with NCI-H23 lung, more than 100 µM; in the experiment on HOP-92 NSCLC it was 48 µM; in the experiment with UACC-62 melanoma, more than 100 µM; with SF-295 CNS, more than 100 µM. Besides, the TGI in the experiment with MDA-MB-435 is more than 100 µM; with OVCAR-5 ovarian, more than 100 µM; in the experiment with SK-MEL-28 melanoma, more than 100 µM; in the experiment on SF-268 CNS it was 96.6 µM; in the experiment on SK-MEL-2 melanoma, more than 100 µM; in the experiment with RXF 393 renal, more than 100 µM.

As for `ClCC[N-]CC[N-]CCCl.ClCC[N-]CC[N-]CCCl.[O-][Cl+3]([O-])([O-])O.[Zn+2]`, the TGI with SN12C renal was more than 100 µM; in the experiment on SNB-75 CNS it was 44.1 µM; in the experiment with HCT-116 colon it was more than 62.8 µM; in the experiment on HOP-62 NSCLC, more than 100 µM; in the experiment with RPMI-8226 leukemia it was more than 100 µM; in the experiment on HT29 colon, more than 100 µM. The TGI in the experiment on OVCAR-8 ovarian is 45.4 µM; in the experiment on SR leukemia, more than 100 µM; with NCI-H23 lung, more than 60.3 µM; in the experiment with HOP-92 NSCLC, more than 57.3 µM; with UACC-62 melanoma it was 66.9 µM; in the experiment on SF-295 CNS, more than 100 µM. The TGI in the experiment with OVCAR-5 ovarian was 46.6 µM; in the experiment on SK-MEL-28 melanoma, more than 62.4 µM; with SF-268 CNS it was 56.6 µM; in the experiment on SK-MEL-2 melanoma, 41.4 µM; in the experiment with RXF 393 renal, more than 59.1 µM.

Consider `O=C(CSCC(=O)N/N=C\c1ccc(O)c(O)c1O)N/N=C\c1ccc(O)c(O)c1O`, for which the TGI with SN12C renal is 59 µM; in the experiment on SNB-75 CNS, 21.2 µM; in the experiment on HCT-116 colon, 13.4 µM; in the experiment with RPMI-8226 leukemia it was 6.86 µM; with HT29 colon, 54.9 µM; in the experiment with OVCAR-8 ovarian it was more than 100 µM. Moreover, the TGI in the experiment on SR leukemia was 8.18 µM; in the experiment with NCI-H23 lung, 3.65 µM; in the experiment with HOP-92 NSCLC, more than 100 µM; with UACC-62 melanoma it was 41.8 µM; in the experiment on SF-295 CNS it was 4.94 µM; in the experiment on MDA-MB-435, 3.59 µM. The TGI was 44.2 µM in the experiment on SK-MEL-28 melanoma, more than 100 µM in the experiment with SF-268 CNS, 84.5 µM in the experiment on SK-MEL-2 melanoma and more than 100 µM in the experiment on RXF 393 renal.

For `CCOC(=O)/C(C(=S)NCc1ccccc1)=C(/N)N1CCCC1`, the TGI in the experiment on SN12C renal, in the experiment on HCT-116 colon, in the experiment with HOP-62 NSCLC, in the experiment on RPMI-8226 leukemia, in the experiment with HT29 colon and in the experiment with OVCAR-8 ovarian was more than 100 µM each time. For the same compound, the TGI with SR leukemia, in the experiment with NCI-H23 lung, in the experiment on HOP-92 NSCLC, with UACC-62 melanoma, with SF-295 CNS and with MDA-MB-435 was more than 100 µM each time. In addition, the TGI in the experiment with OVCAR-5 ovarian, with SK-MEL-28 melanoma, with SF-268 CNS, in the experiment on SK-MEL-2 melanoma and in the experiment with RXF 393 renal was more than 100 µM in each case.

`CC(C)OC/N=C(/N)NC#N`: the TGI was more than 100 µM in the experiment on SN12C renal; more than 100 µM in the experiment with SNB-75 CNS; more than 100 µM in the experiment on HCT-116 colon; more than 100 µM with HOP-62 NSCLC; 61.2 µM in the experiment on RPMI-8226 leukemia; more than 100 µM in the experiment with HT29 colon. In addition, the TGI in the experiment with OVCAR-8 ovarian was more than 100 µM; with SR leukemia, 49.6 µM; with NCI-H23 lung, more than 100 µM; with HOP-92 NSCLC it was more than 100 µM; in the experiment on UACC-62 melanoma it was more than 100 µM; in the experiment on SF-295 CNS it was more than 100 µM. In addition, the TGI in the experiment with OVCAR-5 ovarian, in the experiment with SK-MEL-28 melanoma, in the experiment with SF-268 CNS, with SK-MEL-2 melanoma and in the experiment on RXF 393 renal was more than 100 µM in each case.

Regarding `CCC/C(Cl)=N/OC(NC(=O)OCC)(C(F)(F)F)C(F)(F)F`, the TGI with SN12C renal is 32.6 µM; in the experiment with SNB-75 CNS, more than 100 µM; in the experiment with HCT-116 colon, 34.6 µM; in the experiment with HOP-62 NSCLC, more than 100 µM; in the experiment with RPMI-8226 leukemia, 56.1 µM; in the experiment on HT29 colon, 47.2 µM. In addition, the TGI in the experiment on OVCAR-8 ovarian was more than 100 µM; in the experiment on SR leukemia, 57.6 µM; in the experiment on NCI-H23 lung, 61.4 µM; in the experiment with HOP-92 NSCLC, 36.2 µM; in the experiment with UACC-62 melanoma it was more than 100 µM; in the experiment with SF-295 CNS, more than 100 µM. Further, the TGI was 34.8 µM with MDA-MB-435; 33.2 µM in the experiment with OVCAR-5 ovarian; 59.2 µM in the experiment with SK-MEL-28 melanoma; 36.6 µM in the experiment on SF-268 CNS; more than 100 µM in the experiment on SK-MEL-2 melanoma; 33.6 µM in the experiment with RXF 393 renal.

On to `COc1cc2c(oc(=O)c3cc4cc([Si](C)(C)C)oc4c(OC)c32)c2cccc(O)c12`, for which the TGI in the experiment with SN12C renal, in the experiment with SNB-75 CNS, in the experiment with HCT-116 colon, in the experiment on HOP-62 NSCLC, with RPMI-8226 leukemia and with HT29 colon was more than 100 µM throughout. Moreover, the TGI in the experiment with OVCAR-8 ovarian, in the experiment on SR leukemia, in the experiment with NCI-H23 lung, in the experiment on HOP-92 NSCLC, with UACC-62 melanoma and in the experiment with SF-295 CNS was more than 100 µM throughout. Moreover, the TGI in the experiment with OVCAR-5 ovarian, in the experiment on SK-MEL-28 melanoma, with SF-268 CNS, with SK-MEL-2 melanoma and in the experiment with RXF 393 renal was more than 100 µM each time.
